Measurements published in US5232917A, “Methods, compositions, and compounds for allosteric modulation of the GABA receptor by members of the androstane and pregnane series” (priority 1991, dated 1993).
Read-outs that look alike come from different tables or passages of the source.

Tests used:
[1] = system: number of light/dark transitions (anxiety); test: Light/dark transition test; format: in vivo, mice (male N.I.H. Swiss-Webster)
From the text: (§1) The light/dark transition test (Crawley and Goodwin, 1980) is based on the observation that rodents naturally tend to explore novel environments, but open, brightly lit arenas are aversive to the rodents and inhibit exploratory behavior (Christmas and Maxwell, 1970; File, 1980). […] Similar to the light/dark transition test, the open-field test measures the antagonism between the tendency to explore a novel environment and the tendency to remain still in an aversive environment (brightly lit arena). […] The open-field test provides a simple, non-punished assessment of the potential anxiolytic properties of novel compounds. Finally, 3α-OH-DHP was tested for anxiolytic properties in a Vogel conflict paradigm. The ability of BZs to attenuate the suppression of behavior by punishment in conflict paradigms is well established (Gellar et al., 1962; Vogel et al., 1971).
(§2) Male N.I.H. Swiss-Webster mice (Harlan) weighing 15-20 g were used in all experiments. The mice were housed 4/cage in polyethylene cages with sawdust bedding. The colony room was environmentally controlled (22° C.) with a 12 hr. light/dark cycle (0600-1800 hrs.). The mice had free access to food and water. The experiments were run from 0700-1500 hrs. and groups were counterbalanced for time of day effects.
The method used was previously described by Crawley and Goodwin (1980). The apparatus included a large box (26×33×24 cm) connected to a small box (15×22×14 cm) through an opening (5×6 cm). The large box was brightly lit with a standard 100W light bulb, while the small box was kept dark. Following pretreatment with a test drug, mice were placed in the center of the large box and the number of transitions between the large and small boxes was counted for 10 min. […] During the antagonist studies, CGS-8216 was administered 30 min. prior to the test drug.
(§3) 2-Hydroxypropyl β-cyclodextrin Diazepam and chlordiazepoxide are available from Sigma, Co. (St. Louis, Mo.). CGS-8216 was obtained from Ciba-Geigy (Summit, N.J.). All drugs were dissolved in 20% β-cyclodextrin in water and sonicated overnight. All drugs were administered intraperitoneally in a volume of 100 μL/20 g. CGS-8216 was administered subcutaneously in a volume of 100 μL/20 g.
(§4) The vehicle control data were analyzed across test days using an 1-way analysis of variance (ANOVA). […] The dose-response curves were then analyzed using an 1-way ANOVA, followed by Dunnett's t-test for individual comparisons between doses and control. The open-field and habituated locomotor data were analyzed using ANOVA followed by Dunnett's t-test. […] All data is expressed as the mean±S.E.M.

locomotor activity = test: Locomotor activity in habituated mice; format: in vivo, mice (male N.I.H. Swiss-Webster)
Experimental: For evaluation of a drug's effects on general activity, mice were first habituated to the open-field apparatus for 15 min. The following day, mice were pretreated with a test drug and placed in the center of the activity chambers. The total distance traveled was measured for 10 min.
as §4

[2] = system: number of light/dark transitions (anxiety); details: Blumstein and Crawley, 1983; Crawley et al.; cited from earlier work
open-field activity = test: Open-field activity test; format: in vivo, mice (male N.I.H. Swiss-Webster); details: diazepam 10 mg/kg
From the text: as §1, §2
As a secondary measure of anxiolytic effects, naive mice were placed in the center of a large, brightly lit plexiglass box (42×42×30.5 cm) and the total distance traveled was measured during a 10 min. test period. […] The Digiscan Activity Monitor (Omnitech Electronics, Columbus, Ohio) includes 16 photobeams that surround the box. The activity monitor is linked to a computer through a Digiscan Analyzer (Omnitech Electronics) and the data is analyzed using the Integrated Lab Animal Monitoring System (Omnitech Electronics). The mice were administered drugs as described for light/dark transitions.
as §3, §4

[3] = system: maximal electroshock seizure; details: Swinyard & Woodhead, 1982; cited from earlier work
[4] = system: sedative potential (rotorod); details: Swinyard & Woodhead, 1982; cited from earlier work
[5] = system: metrazol-induced convulsions; details: Swinyard & Woodhead, 1982; cited from earlier work
[6] = system: (+)bicuculline-induced seizures; details: Swinyard & Woodhead, 1982; cited from earlier work
[7] = Swinyard & Woodhead, 1982; cited from earlier work
[8] = system: picrotoxin-induced convulsions; details: Swinyard & Woodhead, 1982; cited from earlier work
[9] = system: strychnine-induced convulsions; design: key to ED50 STR (strychnine): NP: no protection; details: Swinyard & Woodhead, 1982; cited from earlier work
[10] = system: GABA receptor complex (36Cl uptake, cerebral cortical synaptoneurosomes); test: GABA-stimulated 36Cl uptake in rat cerebral cortical synaptoneurosomes; format: biochemical, rat (male Sprague-Dawley)
Experimental: In addition, the ability of the BZ clonazepam to modulate ^36 Cl uptake in the presence or absence of 5α-pregnandiol was evaluated.
The homogenate was diluted to a final volume of 40 mL with buffer and filtered through three layers of Nylon mesh (160 μm).
Aliquots of membrane preparation (200 μL) were preincubated at 30° C. for 10 min. The interaction was initiated by the simultaneous addition of drugs/steroids and 0.2 mL ^36 Cl (New England Nuclear Boston, Mass., 0.55 mCi/mmol, 0.8 μCi/ml) resulting in a total incubation volume of 0.4 mL. Steroids and test drugs were solubilized in dimethylsufoxide (DMSO) and added to the reaction mixture in 2 μL aliquots. An equal volume of vehicle was always included in the control reaction mixture. The mixture was gently mixed and ^36 Cl uptake terminated after 5 sec by the of 5 mL of ice cold buffer containing 100 μM picrotoxin (Sigma Chem Co.) followed immediately by rapid filtration through glass fiber filters (Whatman GF/C) under vacuum. The filters were washed twice with 5 mL of ice-cold buffer and the filter-bound radioactivity quantitated by liquid scintillation spectrophotometry. Specific uptake was calculated by subtracting the amount of ^36 Cl bound to the filters in the absence of synaptoneurosomes from that observed in their presence. Percent enhancement represents percent increase in uptake over that of basal ^36 Cl uptake. Statistical comparisons utilized the analysis of variance (ANOVA).

[11] = system: PMS, PND and catamenial epilepsy; details: cited from earlier work; for clinical effectiveness: PMS, PND, catamenial epilepsy (progesterone), menstrual-cycle correlated epileptic spells (desoxycorticosterone)
punished responding = test: Vogel conflict paradigm (lick suppression); format: in vivo, mice (male N.I.H. Swiss-Webster); details: CDP 10 mg/kg
From the text: An Anxio-Monitor (Omnitech Electronics, Columbus, Ohio) was used for measuring lick suppression. The testing chamber consisted of a clear plexiglass box (29 cm×29 cm×23 cm) with a metal drinking tube located 2.5 cm from the floor and extending 2 cm into the box. The shock was applied through the drinking spout and was controlled by the Anxio-Monitor. […] The reinforcer was 0.1M sucrose.
The conflict test procedure described by Vogel et al. (1980) was employed. This procedure is a modification of the original lick suppression test first described by Vogel et al. (1971). After 24 hr. of water deprivation,mice were allowed to explore the test apparatus and drink without punishment for 10 min. or 100 licks. […] Mice were allowed unpunished access to the drinking tube for 20 licks, thereafter, every 10th lick was punished with 0.1 mA shock. The test duration was 5 min.
as §4

[12] = system: GABA receptor-chloride ionophore complex (GR complex); test: [35S]TBPS binding modulation assay

CN1C(=O)CN=C(c2ccccc2)c2cc(Cl)ccc21 [Diazepam, reference compound]
effect on number of light/dark transitions (words) ([1]; 3α-OH-DHP 10, 20, 40 mg/kg, 5α-THDOC 20 mg/kg, diazepam 1.0, 5.0, 10, 20 mg/kg, 20 mg/kg): significantly (p<0.01) different from controls | number of transitions in 10 min (maximal response) ([1]; diazepam 10 mg/kg i.p., FIG. 11): 86.4±5.4 transitions | effect on locomotor activity (locomotor activity; acclimated mice): no effect | total distance traveled, acclimated mice (locomotor activity; diazepam 10 mg/kg, controls 2061.2±157.7 cm): 2258.0±897.7 cm | effect on number of light/dark transitions (literature) [2]: increase the number of transitions | total distance, open-field (open-field activity; 10 min, vehicle 2004.6 ± 134.6): 4817.7 ± 528.4 cm | effect on open-field activity (open-field activity; steroids 20 mg/kg): significant (p<0.01) increase in activity

O=C1CN=C(c2ccccc2Cl)c2cc([N+](=O)[O-])ccc2N1 [Clonazepam]
ED50 MES (maximal electroshock) [3]: 93 mg/kg | ED50 RR (Rotorod) [4]: 0.184 mg/kg | ED50 MTZ (metrazol) [5]: 0.009 mg/kg | ED50 BIC (bicuculline) [6]: 0.0086 mg/kg | LD50 [7]: > 6000 mg/kg | ED50 PICRO (picrotoxin) [8]: 0.043 mg/kg | ED50 STR (strychnine) [9]: NP | effect on number of light/dark transitions (literature) [2]: increase the number of transitions | % enhancement of basal 36Cl uptake ([10]; GABA (25 μM) + clonazepam (1 μM)): 164±2% | % enhancement of basal 36Cl uptake ([10]; clonazepam (1 μM), no GABA): 1 ± 0.5%

C[C@]12CC[C@H]3[C@@H](CCC4=CC(=O)CC[C@@]43C)[C@@H]1CC[C@@H]2C(=O)CO [desoxycorticosterone]
clinical effectiveness [11]: effective

CNC1=Nc2ccc(Cl)cc2C(c2ccccc2)=[N+]([O-])C1 [CDP, reference compound]
increase in punished responding vs controls (punished responding; 5 min session, p=0.03, FIG. 14): 197.4% | punished responding (punished responding; controls 3.11±0.68): 6.14±1.14

CC(=O)[C@H]1CC[C@H]2[C@@H]3CCC4=CC(=O)CC[C@]4(C)[C@H]3CC[C@]12C [PROGESTERONE, reference compound]
dose-response relationship in the treatment of PMS ([11]; Maddocks et al., Dennerstein et al.): no dose-response relationship exists | clinical effectiveness [11]: not consistently effective | potency/activity at the GR complex ([12]; modulation of [35S]TBPS binding): very low potency | IC50 ([12]; read-out: IC50, inhibition of [35S]-TBPS binding, +5 μM GABA, in the presence of 5 μM GABA): 5.2 µM | IC50 ([12]; read-out: IC50, inhibition of [35S]-TBPS binding, No GABA, washed synaptoneurosomes, no GABA added): > 100 µM | Max. Inhib., maximal % of specifically bound [35S]-TBPS displaced ([12]; saturating concentrations of test compound): 100%
